# Data published in paper PMC6522510 (Nature Communications, 2019).
# How the values were obtained:
# Set-up in all cases: species or system AML cell lines (8); Primary HTS, single concentration about 10 uM, Cell Titer Glo viability; log10 luminescence, per cent inhibition relative to cycloheximide control
# Settings in all cases: 72 h, relative to cycloheximide control, log10 luminescence; inhibitor
# [1] = tested on: M07e
# [2] = tested on: MOLM-13
# [3] = tested on: MV4-11
# [4] = tested on: CHRF288-11
# [5] = tested on: ML-2
# [6] = tested on: CMK
# [7] = tested on: CMS
# [8] = tested on: U937
SMILES,M07e %inh [1] [%],MOLM-13 %inh [2] [%],MV4-11 %inh [3] [%],CHRF288-11 %inh [4] [%],ML-2 %inh [5] [%],CMK %inh [6] [%],CMS %inh [7] [%],U937 %inh [8] [%]
"CS(=O)(=O)CCN(CC#N)Cc1ccc(-c2ccc3ncnc(Nc4ccc(OCc5cccc(F)c5)c(Cl)c4)c3c2)o1 [SJ000573016-1, U15872/6/1]",3.973,0.2014,-0.4968,-2.462,-0.1489,0.1592,3.038,1.155
"COc1cc2ncn(-c3cc(OCc4ccccc4C(F)(F)F)c(C(N)=O)s3)c2cc1OC [SJ000573017-1, U19479/72/1]",75.37,75.9,11.51,5.686,50.35,61.69,10.85,52.87
"COc1ccc2ncn(-c3cc(O[C@H](C)c4ccccc4Cl)c(C(N)=O)s3)c2c1 [SJ000573018-1, U20814/197/10]",105.8,77.34,78.2,95.84,40.68,106.8,74.69,80.58
"NC(=O)c1cc(-c2ccc(F)cc2)cc(-c2ccncc2)c1N [SJ000573019-1, R12070/183/1]",-3.642,2.771,-5.414,0.09024,-4.125,2.8,-0.425,-0.8611
"CS(=O)(=O)CCNCc1coc(-c2ccc3ncnc(Nc4ccc(OCc5ccccc5)cc4)c3c2)c1 [SJ000573020-1, U12271/135/2]",-2.581,31.36,24.68,-1.974,1.422,4.823,-1.503,2.077
"NC(=O)Cc1ccccc1Oc1nccc(-c2c(-c3ccc(F)cc3)ncn2C2CCNCC2)n1 [SJ000573021-1, JB27143-130B1]",-2.017,-3.279,-0.3846,2.665,0.1798,-8.193,1.576,-0.5311
"CS(=O)(=O)CCNCc1ccoc1-c1ccc2ncnc(Nc3ccc(OCc4ccccc4)cc3)c2c1 [SJ000573022-1, U12271/142/3]",4.198,26.01,13.73,3.335,0.6017,1.228,-1.789,-0.4603
"COc1cc2ncn(-c3cc(OCc4ccccc4Cl)c(C(N)=O)s3)c2cc1OC [SJ000573023-1, U22436/143/1]",101,81.3,72.02,71.75,36.08,98.04,71.19,71.67
"CCS(=O)(=O)c1ccc(OC)c(Nc2ncc(-c3cccc(C(C)=O)c3)o2)c1 [SJ000573024-1, U16419/42/1]",133.2,78.46,66.42,-0.8609,-2.018,1.586,-0.9431,71.28
"COc1cc2ncn(-c3cc(OCCc4ccccc4)c(C(N)=O)s3)c2cc1OC [SJ000573025-1, U19479/153/8]",0.3839,2.298,2.077,0.4642,0.6694,4.39,-1.969,0.712
"N#Cc1c(NC(=O)c2cccc3ccccc23)sc2c1CCCC2 [SJ000573026-1, R15619/70/1 | TCS JNK 5A | JNK INHIBITOR IX | | TCS JNK 5A]",97.41,87.75,80.18,42.98,58.68,122.9,100.8,83.53
"COc1cccc(-n2ncc3c(N/N=C/c4ccc(S(C)(=O)=O)cc4)ncnc32)c1 [SJ000573027-1, U18028/92/1]",-5.045,-3.446,1.569,-7.861,-4.304,-4.499,0.1842,-1.909
"COc1cccc(Nc2nccc(-c3cnn4ncccc34)n2)c1 [SJ000573028-1, U18020/75/1]",96.77,96.5,76.07,61.5,57.03,112.7,93.88,74.45
"COC(=O)Nc1nc2ccc(Sc3ccc(NC(=O)Nc4cc(C(F)(F)F)ccc4F)cc3)cc2[nH]1 [SJ000573029-1, T229/195/1]",3.372,17.62,2.362,10.2,2.621,38.89,-0.01293,5.795
"NC(=O)c1cccc(Nc2nccc(Nc3cccc4[nH]ncc34)n2)c1 [SJ000573030-1, JA205171-001A6]",5.4,22.42,23.15,16.39,2.579,-1.424,1.464,-0.8011
"Cc1cccc(Nc2ncc(-c3ccccc3)o2)c1 [SJ000573031-1, U21834/25/1]",2.356,78.79,58.38,1.444,2.781,4.152,1.47,0.1537
"NC(=O)c1sc(-n2cnc3ccccc32)cc1OCc1ccccc1Br [SJ000573032-1, U22538/78/1]",3.083,1.858,0.1879,-0.9565,42.25,4.627,2.746,1.777
"O=C(Nc1ccc(Oc2ccc3[nH]c(NC(=O)c4ccco4)nc3c2)cc1)Nc1cc(C(F)(F)F)ccc1F [SJ000573033-1, T261/93/1]",35.38,87.05,70.61,89.61,20.85,84.76,23.46,42.07
"NS(=O)(=O)c1cccc(-c2cc3ccncc3cc2OCc2ccccc2)c1 [SJ000573034-1, R14712/3/10]",-1.198,2.316,0.8878,2.678,0.9825,-0.5905,1.551,3.709
"COc1cccc(-n2ncc3c(N/N=C/c4ccc(C)cc4)ncnc32)c1 [SJ000573035-1, U19125/70/4]",-2.359,-2.64,-1.749,-5.466,-2.47,-4.291,5.04,2.182
"CNC(=O)c1ncccc1Nc1nc(Nc2cc3c(cc2OC)CCCN3C(=O)CN(C)C)nc2[nH]ccc12 [SJ000573036-1, N6938-65-1]",30.44,47.47,4.775,21.29,45.98,7.075,1.812,17.5
"COc1cccc(-n2ncc3c(N/N=C/c4ccncc4)ncnc32)c1 [SJ000573037-1, U25132/28/11]",-4.147,-2.08,1.553,6.081,0.6096,-6.6,4.136,-2.89
"COc1cc2c(cc1Nc1nc(Nc3ccsc3C(N)=O)c3cc[nH]c3n1)N(C(=O)CN(C)C)CCC2(C)C [SJ000573038-1, N3343-83-1]",57.48,92.5,43.78,128.8,44.68,81.26,16.39,51.73
